Our source for the relative viability values is the supplement of paper PMC10307832.

Common to all, as to test: relative viability (nuclei count vs DMSO), 5 days (fraction); higher = more cells survive
Compound in the assay “CAP-232 + Tozasertib”: C[C@H]([C@@H](C(=O)N)NC(=O)[C@@H]1CSSC[C@@H](C(=O)N[C@H](C(=O)N[C@@H](C(=O)N[C@H](C(=O)N1)CCCCN)CC2=CNC3=CC=CC=C32)CC4=CC=C(C=C4)O)NC(=O)[C@@H](CC5=CC=CC=C5)N)O [CAP-232] + Cc1cc(Nc2cc(N3CCN(C)CC3)nc(Sc3ccc(NC(=O)C4CC4)cc3)n2)n[nH]1 [Tozasertib] (partner 0.1 µM)
In short, it runs like this: (§1)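 Nuclei were stained with Hoechst during a one-step fixation (final 0.05% Triton X-100, 1% formaldehyde, 1 ug/ml Hoechst) carried out 5 days after dosing, then counted on 4× images. The cells, lung cancer lines in 1536-well plates, had been dosed by pin tool the day after seeding with one drug alone or a fixed anchor-drug dose plus five library-drug doses (not always all listed) in √10 steps. Relative viability is the nuclei count in treated wells divided by that in vehicle wells, and each value is the median of duplicate plates.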

Compound in the assay “CAP-232 + OSI-027”: C[C@H]([C@@H](C(=O)N)NC(=O)[C@@H]1CSSC[C@@H](C(=O)N[C@H](C(=O)N[C@@H](C(=O)N[C@H](C(=O)N1)CCCCN)CC2=CNC3=CC=CC=C32)CC4=CC=C(C=C4)O)NC(=O)[C@@H](CC5=CC=CC=C5)N)O [CAP-232] + COc1cccc2cc(-c3nc([C@H]4CC[C@H](C(=O)O)CC4)n4ncnc(N)c34)[nH]c12 [OSI-027] (partner 0.5 µM)
Put shortly: as §1

Compound in the assay “CAP-232 + Pemetrexed”: C[C@H]([C@@H](C(=O)N)NC(=O)[C@@H]1CSSC[C@@H](C(=O)N[C@H](C(=O)N[C@@H](C(=O)N[C@H](C(=O)N1)CCCCN)CC2=CNC3=CC=CC=C32)CC4=CC=C(C=C4)O)NC(=O)[C@@H](CC5=CC=CC=C5)N)O [CAP-232] + Nc1nc2[nH]cc(CCc3ccc(C(=O)N[C@@H](CCC(=O)O)C(=O)O)cc3)c2c(=O)[nH]1 [Pemetrexed] (partner 0.2 µM)
In short, it runs like this: as §1

Compound in the assay “CAP-232 + Navitoclax”: C[C@H]([C@@H](C(=O)N)NC(=O)[C@@H]1CSSC[C@@H](C(=O)N[C@H](C(=O)N[C@@H](C(=O)N[C@H](C(=O)N1)CCCCN)CC2=CNC3=CC=CC=C32)CC4=CC=C(C=C4)O)NC(=O)[C@@H](CC5=CC=CC=C5)N)O [CAP-232] + CC1(C)CCC(c2ccc(Cl)cc2)=C(CN2CCN(c3ccc(C(=O)NS(=O)(=O)c4ccc(N[C@H](CCN5CCOCC5)CSc5ccccc5)c(S(=O)(=O)C(F)(F)F)c4)cc3)CC2)C1 [Navitoclax] (partner 0.5 µM)
Put shortly: as §1

Compound in the assay “CAP-232 + Foretinib”: C[C@H]([C@@H](C(=O)N)NC(=O)[C@@H]1CSSC[C@@H](C(=O)N[C@H](C(=O)N[C@@H](C(=O)N[C@H](C(=O)N1)CCCCN)CC2=CNC3=CC=CC=C32)CC4=CC=C(C=C4)O)NC(=O)[C@@H](CC5=CC=CC=C5)N)O [CAP-232] + COc1cc2c(Oc3ccc(NC(=O)C4(C(=O)Nc5ccc(F)cc5)CC4)cc3F)ccnc2cc1OCCCN1CCOCC1 [Foretinib] (partner 0.25 µM)
Put shortly:
as §1

Consider NCI-H460, for which the relative viability is 0.487 with CAP-232 + Tozasertib (first compound 0.4 µM); 0.463 in the assay with CAP-232 + Tozasertib (first compound 1.265 µM); 0.634 in the assay with CAP-232 + Tozasertib (first compound 4 µM); 0.396 in the assay with CAP-232 + Tozasertib (first compound 12.65 µM); 0.767 with CAP-232 + OSI-027 (first compound 0.4 µM); 0.739 with CAP-232 + OSI-027 (first compound 1.265 µM). In addition, the relative viability stood at 0.825 in the assay with CAP-232 + OSI-027 (first compound 4 µM); 0.275 with CAP-232 + OSI-027 (first compound 12.65 µM); 0.0632 with CAP-232 + Pemetrexed (first compound 0.4 µM); 0.0566 with CAP-232 + Pemetrexed (first compound 1.265 µM); 0.0556 with CAP-232 + Pemetrexed (first compound 4 µM); 0.0558 in the assay with CAP-232 + Pemetrexed (first compound 12.65 µM). The relative viability came to 1.02 with CAP-232 + Navitoclax (first compound 0.4 µM); 1.36 in the assay with CAP-232 + Navitoclax (first compound 1.265 µM); 1.11 with CAP-232 + Navitoclax (first compound 4 µM); 0.542 with CAP-232 + Navitoclax (first compound 12.65 µM); 1.02 in the assay with CAP-232 + Foretinib (first compound 0.4 µM); 1.1 with CAP-232 + Foretinib (first compound 1.265 µM). Moreover, the relative viability with CAP-232 + Foretinib (first compound 4 µM) turned out to be 1.22; in the assay with CAP-232 + Foretinib (first compound 12.65 µM) it was 0.622.
For NCI-H520, the relative viability with CAP-232 + Tozasertib (first compound 0.4 µM) was determined as 0.439; with CAP-232 + Tozasertib (first compound 1.265 µM), 0.405; in the assay with CAP-232 + Tozasertib (first compound 4 µM), 0.395; with CAP-232 + Tozasertib (first compound 12.65 µM), 0.354; with CAP-232 + OSI-027 (first compound 0.4 µM), 0.258; in the assay with CAP-232 + OSI-027 (first compound 1.265 µM), 0.31. Moreover, the relative viability stood at 0.304 with CAP-232 + OSI-027 (first compound 4 µM); 0.3 in the assay with CAP-232 + OSI-027 (first compound 12.65 µM); 0.581 in the assay with CAP-232 + Pemetrexed (first compound 0.4 µM); 0.651 with CAP-232 + Pemetrexed (first compound 1.265 µM); 0.673 with CAP-232 + Pemetrexed (first compound 4 µM); 0.634 with CAP-232 + Pemetrexed (first compound 12.65 µM). Besides, the relative viability is 1.03 with CAP-232 + Navitoclax (first compound 0.4 µM); 0.997 with CAP-232 + Navitoclax (first compound 1.265 µM); 1.13 with CAP-232 + Navitoclax (first compound 4 µM); 0.582 with CAP-232 + Navitoclax (first compound 12.65 µM); 0.734 with CAP-232 + Foretinib (first compound 0.4 µM); 0.98 with CAP-232 + Foretinib (first compound 1.265 µM). Also, the relative viability was 0.92 with CAP-232 + Foretinib (first compound 4 µM) and 0.47 in the assay with CAP-232 + Foretinib (first compound 12.65 µM).
In the case of NCI-H596, the relative viability was determined as 0.962 in the assay with CAP-232 + Tozasertib (first compound 0.4 µM); 1.04 with CAP-232 + Tozasertib (first compound 1.265 µM); 0.886 with CAP-232 + Tozasertib (first compound 4 µM); 0.821 in the assay with CAP-232 + Tozasertib (first compound 12.65 µM); 0.767 with CAP-232 + OSI-027 (first compound 0.4 µM); 0.726 with CAP-232 + OSI-027 (first compound 1.265 µM). In addition, the relative viability stood at 0.884 with CAP-232 + OSI-027 (first compound 4 µM); 0.633 in the assay with CAP-232 + OSI-027 (first compound 12.65 µM); 0.562 in the assay with CAP-232 + Pemetrexed (first compound 0.4 µM); 0.49 in the assay with CAP-232 + Pemetrexed (first compound 1.265 µM); 0.439 in the assay with CAP-232 + Pemetrexed (first compound 4 µM); 0.448 with CAP-232 + Pemetrexed (first compound 12.65 µM). In addition, the relative viability was found to be 0.839 with CAP-232 + Navitoclax (first compound 0.4 µM); 1 in the assay with CAP-232 + Navitoclax (first compound 1.265 µM); 1.08 with CAP-232 + Navitoclax (first compound 4 µM); 0.987 with CAP-232 + Navitoclax (first compound 12.65 µM); 0.863 with CAP-232 + Foretinib (first compound 0.4 µM); 0.739 with CAP-232 + Foretinib (first compound 1.265 µM). Besides, the relative viability with CAP-232 + Foretinib (first compound 4 µM) is 0.985; in the assay with CAP-232 + Foretinib (first compound 12.65 µM), 0.827.
With NCI-H647, the relative viability in the assay with CAP-232 + Tozasertib (first compound 0.4 µM) was found to be 0.216; in the assay with CAP-232 + Tozasertib (first compound 1.265 µM), 0.259; with CAP-232 + Tozasertib (first compound 4 µM), 0.269; in the assay with CAP-232 + Tozasertib (first compound 12.65 µM), 0.276; with CAP-232 + OSI-027 (first compound 0.4 µM) it was 0.576; with CAP-232 + OSI-027 (first compound 1.265 µM) it was 0.775. Further, the relative viability turned out to be 0.739 with CAP-232 + OSI-027 (first compound 4 µM); 0.577 with CAP-232 + OSI-027 (first compound 12.65 µM); 0.153 in the assay with CAP-232 + Pemetrexed (first compound 0.4 µM); 0.184 with CAP-232 + Pemetrexed (first compound 1.265 µM); 0.182 with CAP-232 + Pemetrexed (first compound 4 µM); 0.158 in the assay with CAP-232 + Pemetrexed (first compound 12.65 µM). The relative viability with CAP-232 + Navitoclax (first compound 0.4 µM) is 1.35; with CAP-232 + Navitoclax (first compound 1.265 µM), 1.27; with CAP-232 + Navitoclax (first compound 4 µM) it was 1.31; in the assay with CAP-232 + Navitoclax (first compound 12.65 µM), 1.09; with CAP-232 + Foretinib (first compound 0.4 µM) it was 1.15; with CAP-232 + Foretinib (first compound 1.265 µM), 1.06. The relative viability worked out at 1.36 in the assay with CAP-232 + Foretinib (first compound 4 µM) and 0.749 in the assay with CAP-232 + Foretinib (first compound 12.65 µM).
